Results on 5 compounds are retold here after patent publication US10087144B2, “Agents for use in the treatment of cardiovascular and inflammatory diseases structurally based on 4(1 H)-quinolone” (UCL Business PLC, priority 2015, dated 2018).

Where two headings read alike, the source gives them in different places. A value given as a limit tells only on which side of the number the result lay.

The subject of experiment [1] is rat mesenteric artery smooth muscle cells. Kind of experiment: Ca2+ flux in response to Angiotensin II in isolated rat mesenteric artery smooth muscle cells (FLIPR). The class given is cell-based. The note with it: for inhibition at 1 µM / inhibition at 10 µM: Rattus norvegicus; for inhibition at 1 µM: read-out: % inhibition 1 μM; for inhibition at 10 µM: read-out: % inhibition 10 μM. The protocol: Mesenteric artery smooth muscle cells were isolated from male Sprague-Dawley rats (200-250 g). Mesenteric arteries were dissected, cleared of extraneous tissue and incubated in an enzyme solution containing collagenase type I (1 mg/ml), soybean trypsin inhibitor (0.25 mg/ml), bovine albumin (1 mg/ml), CaCl2 (0.2 mM), 100 U/ml penicillin (100 U/ml) and streptomycin (100 μg/ml) in a humidified incubator with 5% CO2 in air. The enzyme solution was replenished at 30 min intervals and cells were pelleted by centrifugation (200 g, 5 min) and differentially plated (×2) for 15 min in Dulbecco's Modified Eagle's Medium (DMEM) supplemented with penicillin (100 U/ml), streptomycin (100 μg/ml), L-Glutamine (2 mM) and 10% heat inactivated New Zealand foetal calf serum. Cells were passaged by trypsinisation and viability determined by trypan blue exclusion.
Measurements of Ca^2+ flux in response to Angiotensin II were conducted using a Fluorescent Imaging Plate Reader (FLIPR; Molecular Devices). Cells were plated at a density of 10,000 cells/well into black, clear-bottomed 96-well plates in DMEM supplemented with penicillin (100 U/ml), streptomycin (100 μg/ml), L-Glutamine (2 mM) and 10% heat inactivated New Zealand foetal calf serum. 24 hrs later the cells were incubated with Fluo-3-AM (4 μM) for 60 min at 37° C. Once dye-loaded, the cells were washed thoroughly with the proprietary assay buffer to remove any unincorporated dye. The cells were then incubated with varying concentrations of a number of representative NPR-C agonist molecules of the invention, C-type natriuretic peptide or vehicle (DMSO) and placed into the FLIPR. After 15 mins, Angiotensin II (100 nM) was automatically dispensed into each well and the fluorescence signal followed for 5 mins. Potency was determined by comparison of the peak fluorescence in each test well (run in triplicate) with that of the control (Angiotensin II alone). Background fluorescence (assay buffer only) was subtracted from all values.
(Calcium assays in cells follow changes in intracellular calcium, usually with a dye or a luminescent sensor.)

Another experiment concerns rat mesenteric arteries. Kind of experiment: Vasoreactivity in rat mesenteric arteries in vitro (relaxation of U46619-contracted vessels, tension myograph). The note with it: for EC50: vasorelaxation, calculated from concentration-response curves. The protocol: Male rats (Sprague-Dawley; 200-250 g) were stunned and killed by cervical dislocation. The mesentery was removed and third-order arteries mounted in an automated tension myograph (Danish Myotechnology). After an equilibration period of 45 min, vessels were normalized and diameter determined. Following normalization, each vessel was contracted repeatedly with the thromboxane A2-mimetic 9,11-dideoxy-11^α,9^α-epoxymethano-prostaglandin F2α (U46619; 1 μM) until the response was reproducible. The vessels were then washed to restore basal tone before contracting to approximately 50% of the maximum U46619-induced response. Once a stable response to U46619 was achieved, cumulative concentration-response curves were constructed with a variety of NPR-C agonists of the invention at varying concentrations (0.001-30 μM), or vehicle (DMSO). In some studies, concentration-response curves to NPR-C agonists were conducted in the presence of the NPR-C antagonist M372049 (10 μM). Only one curve to any one agonist was constructed in any single tissue.

The next experiment has as its system human platelets. In words: Human platelet aggregation in platelet rich plasma. The class given is cell-based. The note with it: for inhibition at 1 µM: Homo sapiens. The protocol: Blood samples (35 ml) were taken from healthy volunteers who had abstained from aspirin, non-steroidal anti-inflammatory drugs or paracetamol for 14 days. Blood was collected by venepuncture into tri-sodium citrate (3.2% w/v) and centrifuged at 175 g for 15 min to obtain platelet rich plasma (PRP). Platelet poor plasma (PPP) was obtained by centrifugation of PRP at 15000 g for 5 min. The PRP (100 μl) was then added to the wells of 96-well plates and incubated for 15 mins with representative NPR-C agonists of the invention or vehicle (DMSO). Subsequently, platelet agonists (10 μl each) were added to wells in triplicate: adenosine diphosphate (ADP, 0.1-30 μM), arachidonic acid (AA, 0.03-1.3 mM), collagen (type I equine tendon 0.1-30 μg/ml), adrenaline (0.001-100 μM), ristocetin (0.2-3 mg/ml), TRAP6 (thrombin receptor activating peptide) amide (SFLLRN; 0.1-30 μM), U46619 (0.1-30 μM) or vehicle. Plates were then immediately placed in a 96-well plate reader and absorbance determined at 595 nm every 15 s for 16 min between vigorous shaking at 37° C. Changes in absorbance were converted to % aggregation by reference to the absorbances of PRP and PPP.

The test system of the next experiment is arterial blood pressure. Kind of experiment: Mean arterial pressure measurements in anesthetized mice. In kind it is in vivo. The procedure:
Mice were maintained under anesthesia (isoflurane, 1-1.5%, in 100% O2 at 0.4 L·min) throughout the experiment and body temperature was kept constant at 37.5° C. A Millar pressure transducer catheter (Millar Instruments, Houston, Tex., USA) was placed in the carotid artery for arterial blood pressure (BP) measurements and a tube catheter (polyvinyl tubing, 0.61 mm outside diameter) in the jugular vein for intravenous bolus doses of 118 ([…]) and vehicle (10% DMSO in PBS) using a 0.5 mL insulin syringe. A pump (flow 0.5 ml/h) was used for infusion of 118 (1 mg/kg/min) or vehicle (10% dimethylsulfoxide; DMSO in PBS) during 10 min. BP was evaluated throughout.

The target in the next experiment is Human NPR-C (Homo sapiens (Human), UniProt P17342). In words: Surface plasmon resonance (SPR) spectroscopy, binding to immobilised human NPR-C. To be noted: FIGS. 5, 6 and 7. The procedure: All SPR analysis was performed on a BIAcore T200 system using series S CM5 sensor chips. Data processing and analysis were performed using BIAevaluation software and Scrubber2. All sensorgrams were double referenced by subtracting the response on a reference flowcell and a blank sample.
Human NPR-C (OriGene, Rockville, USA), was covalently attached to a CM5 chip via amine coupling. A surface density of 2700 RU was used for measurements with natriuretic peptides and the NPR-C antagonist M372049, and a density of 5200 RU for measurements with compound 118. Sequential injections of CNP (0.25, 0.50, 1, 2 & 4 nM) were performed at a flow rate of 30 μL/min for (240 s for each), followed by a dissociation time of 3600 s. Binding site saturation was observed and the surface was regenerated by two injections of 1M NaCl (200 s each). Binding of M372049 (0.94, 1.88, 3.75, 7.5, 15, 30 & 60 nM) and Compound 118 (1.17, 2.34, 4.70, 9.38, 18.75, 37.50, 75 & 150 μM) was analysed by sequential injections (120 s for M372049, 30 s for compound 118) followed by undisturbed dissociation (600 s for M372049, 30 s for compound 118), during which curves returned to baseline. Kinetic parameters were calculated assuming a simple 1:1 (Langmuir) binding.

The mark [2] stands for this setting: 1 μM compound, inhibition of Angiotensin II (100 nM) Ca2+ flux peak fluorescence.
Where [3] appears, read: 10 μM compound, inhibition of Angiotensin II (100 nM) Ca2+ flux peak fluorescence.

Human NPR-C, sequence (P17342 27-541): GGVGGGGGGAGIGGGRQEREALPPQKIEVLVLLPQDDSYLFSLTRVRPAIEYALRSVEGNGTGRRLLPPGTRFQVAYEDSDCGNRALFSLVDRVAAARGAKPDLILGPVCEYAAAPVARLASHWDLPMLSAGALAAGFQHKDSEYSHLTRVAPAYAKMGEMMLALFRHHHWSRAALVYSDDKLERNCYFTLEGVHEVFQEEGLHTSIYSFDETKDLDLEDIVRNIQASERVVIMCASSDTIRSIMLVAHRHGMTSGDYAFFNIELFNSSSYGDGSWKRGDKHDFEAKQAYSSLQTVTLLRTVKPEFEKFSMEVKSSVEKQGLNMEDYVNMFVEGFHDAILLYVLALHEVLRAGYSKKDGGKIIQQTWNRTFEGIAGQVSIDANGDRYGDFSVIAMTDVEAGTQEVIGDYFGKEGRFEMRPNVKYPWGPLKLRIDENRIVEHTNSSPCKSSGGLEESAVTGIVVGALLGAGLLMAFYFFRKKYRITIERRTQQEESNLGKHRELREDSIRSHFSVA

The inhibition is the percentage by which the read-out fell short of the control. Broadly, the EC50 is the concentration at which the effect is half-maximal. Consider `CC(C)(C)OC(=O)CNC(=O)c1cn(Cc2ccccc2)c2ccc(Br)cc2c1=O` [Compound 28, tert-butyl 2-(1-benzyl-6-bromo-4-oxo-1,4-dihydroquinoline-3-carboxamido)acetate], for which the inhibition at 1 µM in experiment [1] is 100%; in the experiment on rat mesenteric arteries (Rattus norvegicus, 1 μM, U46619-contracted third-order arteries) it was 22%; in the experiment on human platelets it was 14.3%. Also, the inhibition at 10 µM amounted to 100% in experiment [1] and 97% in the experiment on rat mesenteric arteries (Rattus norvegicus, 10 μM, U46619-contracted third-order arteries). The inhibition at 3 µM in the experiment with rat mesenteric arteries (Rattus norvegicus, 3 μM, U46619-contracted third-order arteries) turned out to be 55%. The same compound displayed an inhibition at 30 µM with rat mesenteric arteries (Rattus norvegicus, 30 μM, U46619-contracted third-order arteries) of 100%. Moreover, the EC50 with rat mesenteric arteries (Rattus norvegicus) is 1.6 µM.
With `O=C(O)CNC(=O)c1cn(Cc2ccccc2)c2ccc(Br)cc2c1=O` [Compound 118, 2-(1-benzyl-6-bromo-4-oxo-1,4-dihydroquinoline-3-carboxamido)acetic acid], the inhibition at 1 µM amounted to 95% in experiment [1] (setting [2]) and 16.7% in the experiment on human platelets. The inhibition at 10 µM in experiment [1] (setting [3]) worked out at 100%. The EC50 in the experiment with rat mesenteric arteries (Rattus norvegicus) was 2.8 µM. In addition, the “change in BP after intravenous bolus doses” value with arterial blood pressure (i.v. bolus, FIG. 2) is given as “dose-dependent decrease in BP”. Further, in the experiment on arterial blood pressure (infusion 1 mg/kg/min during 10 min, FIG. 3), the “change in BP during infusion” value is given as “reduction in BP that was sustained during 10 minutes”. The “binding to human NPR-C (SPR)” value on Human NPR-C is recorded as “binding”.
With “C-type natriuretic peptide [CNP, reference compound]”, the “% inhibition 1 μM” value in experiment [1] (setting [2]) is 100%. Moreover, the “% inhibition 10 μM” value in experiment [1] (setting [3]) is on record as 100%. Further, in the experiment with rat mesenteric arteries, the concentration for a half-maximal effect (EC50) is 0.0138 µM. Also, the “% inhibition of human platelet aggregation (at 1 microM)” value with human platelets came to 71.8%. Further, the “binding to human NPR-C (SPR)” value on Human NPR-C is recorded as “binding”.
As for `CC(C)C(NC(=O)c1cn(Cc2ccccc2)c2ccc(Br)cc2c1=O)C(=O)O` (stereo not shown) [Compound 119], in experiment [1] (setting [2]), the “% inhibition 1 μM” value came to 80%. In addition, the “% inhibition 10 μM” value in experiment [1] (setting [3]) was determined as 100%. The “% relaxation 1 μM” value in the experiment with rat mesenteric arteries (1 μM, U46619-contracted third-order arteries) worked out at 2%. Moreover, the “% relaxation 3 μM” value with rat mesenteric arteries (3 μM, U46619-contracted third-order arteries) is 5%. Also, the “% relaxation 10 μM” value with rat mesenteric arteries (10 μM, U46619-contracted third-order arteries) was determined as 26%. Also, the “% relaxation 30 μM” value in the experiment with rat mesenteric arteries (30 μM, U46619-contracted third-order arteries) was 94%. For the same compound, in the experiment on rat mesenteric arteries, the EC50 was > 50 µM.
Take `CC[C@H](C)[C@H](NC(=O)[C@@H](CCCN=C(N)N)NC(=O)[C@H](CC(=O)O)NC(=O)[C@H]([C@@H](C)CC)N1CC[C@@H](NC(=O)Cc2ccc(NC(=O)c3cnc4ccccc4n3)cc2)C1=O)C(N)=O` [Compound M372049]: on Human NPR-C, the “binding to human NPR-C (SPR)” value is “binding”.
